Experimental data as given in ChEMBL document CHEMBL1201862, “PubChem BioAssay data set” (2004).
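Compound exposure: 48 hours, 5 concentrations, 96-well plates. GI50: concentration for 50% inhibition of growth.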 Calls of active or inactive are those of the source. Rule as the data show it: active = GI50 up to about 1.1 µM and inactive = higher.

What was measured:
Assay in all cases: NCI tumour cell line growth inhibition, 48 h
NCI-H226 = test system: NCI-H226
OVCAR-3 = test system: OVCAR-3
OVCAR-5 = test system: OVCAR-5
HOP-62 = test system: HOP-62
LOX IMVI = test system: LOX IMVI
786-0 = test system: 786-0
RPMI-8226 = test system: RPMI-8226
A549 = test system: A549
SW-620 = test system: SW-620
CAKI-1 = test system: CAKI-1
OVCAR-4 = test system: OVCAR-4
A498 = test system: A498
ACHN = test system: ACHN
COLO 205 = test system: COLO 205
SN12C = test system: SN12C
SF-295 = test system: SF-295
MOLT-4 = test system: MOLT-4
RXF 393 = test system: RXF 393
T47D = test system: T47D
SF-268 = test system: SF-268

Measured: GI50

O=C(NNS(=O)(=O)c1ccccc1)c1cccnc1
inactive: NCI-H226 > 100 µM | OVCAR-3 > 100 µM | OVCAR-5 > 100 µM | HOP-62 > 100 µM | LOX IMVI > 100 µM | 786-0 > 100 µM | RPMI-8226 > 100 µM | A549 > 100 µM | SW-620 > 100 µM | CAKI-1 > 100 µM | OVCAR-4 > 100 µM | A498 > 100 µM | ACHN > 100 µM | COLO 205 > 100 µM | SN12C > 100 µM | SF-295 > 100 µM | MOLT-4 > 100 µM | RXF 393 > 100 µM | T47D > 100 µM | SF-268 > 100 µM

O=C1N=NC(=O)N1c1cc(C(F)(F)F)cc(C(F)(F)F)c1
inactive: NCI-H226 2.55 µM | OVCAR-3 2.44 µM | OVCAR-5 4.09 µM | HOP-62 4.17 µM | LOX IMVI 3.27 µM | 786-0 4.68 µM | RPMI-8226 2.89 µM | A549 2.93 µM | SW-620 5.46 µM | CAKI-1 2.94 µM | OVCAR-4 4.21 µM | A498 5.4 µM | ACHN 4.04 µM | COLO 205 1.85 µM | SN12C 3.75 µM | SF-295 2.78 µM | MOLT-4 3.37 µM | RXF 393 3.29 µM | T47D 3.61 µM | SF-268 3.7 µM

N#CCCCC[N+]12CN3CN(CN(C3)C1)C2
inactive: NCI-H226 > 100 µM | OVCAR-3 > 100 µM | OVCAR-5 > 100 µM | HOP-62 > 100 µM | LOX IMVI 32.1 µM | 786-0 > 100 µM | RPMI-8226 40.8 µM | A549 > 100 µM | SW-620 64.6 µM | CAKI-1 > 100 µM | OVCAR-4 > 100 µM | A498 > 100 µM | ACHN > 100 µM | COLO 205 > 100 µM | SN12C > 100 µM | SF-295 > 100 µM | MOLT-4 > 100 µM | RXF 393 > 100 µM | T47D > 100 µM | SF-268 > 100 µM

COc1cc(C)cc(C(=O)/C=C/c2ccccc2)c1O
inactive: NCI-H226 24.2 µM | OVCAR-3 16.5 µM | OVCAR-5 13.8 µM | HOP-62 16.7 µM | LOX IMVI 17.4 µM | 786-0 17.8 µM | RPMI-8226 21.2 µM | A549 30.3 µM | SW-620 20.2 µM | CAKI-1 19.5 µM | OVCAR-4 20.2 µM | A498 18.3 µM | ACHN 18.3 µM | COLO 205 20 µM | SN12C 16.9 µM | SF-295 20.9 µM | MOLT-4 30.2 µM | RXF 393 16.3 µM | T47D 11.1 µM | SF-268 25.6 µM

CC1=NC(=O)C(C)(c2ccccc2)N1CCc1ccccc1 (stereo not given)
inactive: NCI-H226 42.7 µM | OVCAR-3 11.1 µM | OVCAR-5 > 100 µM | HOP-62 > 100 µM | LOX IMVI 58.7 µM | 786-0 > 100 µM | RPMI-8226 63.1 µM | A549 27.3 µM | SW-620 61.8 µM | CAKI-1 > 100 µM | OVCAR-4 25.6 µM | A498 21.7 µM | ACHN > 100 µM | COLO 205 27.4 µM | SN12C > 100 µM | SF-295 38.5 µM | MOLT-4 15.9 µM | RXF 393 24.7 µM | T47D 22.3 µM | SF-268 > 100 µM

COC1C(OC(=O)/C=C/C=C/C=C/C=C\C(=O)O)CCC2(CO2)C1C1(C)OC1CC=C(C)C (stereo not given)
inactive: NCI-H226 > 100 µM | OVCAR-3 > 100 µM | OVCAR-5 > 100 µM | HOP-62 > 100 µM | LOX IMVI > 100 µM | 786-0 > 100 µM | RPMI-8226 > 100 µM | A549 > 100 µM | SW-620 > 100 µM | CAKI-1 > 100 µM | OVCAR-4 > 100 µM | A498 > 100 µM | ACHN > 100 µM | COLO 205 > 100 µM | SN12C > 100 µM | SF-295 > 100 µM | MOLT-4 > 100 µM | RXF 393 > 100 µM | T47D > 100 µM | SF-268 > 100 µM

Cc1ccc([N+](=O)[O-])c2c(NCCC[N+](C)(C)[O-])ccnc12
inactive: NCI-H226 98.9 µM | OVCAR-3 33.9 µM | OVCAR-5 28.2 µM | HOP-62 29.3 µM | LOX IMVI 49.5 µM | 786-0 > 100 µM | RPMI-8226 31 µM | A549 33.2 µM | SW-620 34.1 µM | CAKI-1 53.6 µM | OVCAR-4 20.3 µM | A498 32.2 µM | ACHN 61.5 µM | COLO 205 34 µM | SN12C > 100 µM | SF-295 28.8 µM | MOLT-4 34.8 µM | RXF 393 34.4 µM | T47D 35.1 µM | SF-268 > 100 µM
